According to patent US20260014285A1, “POLYPEPTIDE COMPOUND, AND COMPLEX AND USE THEREOF” (HANGZHOU HEALTHYTIDE BIOTECHNOLOGY CO., LTD., priority 2022, published 2026):
Non-standard residues stand in square brackets, D forms with d. Residues, ends and D or L forms follow the SMILES beside them. ξ: configuration not given here. *: point of attachment. DOTA = O=C(O)CN1CCN(CC(=O)O)CCN(CC(=O)*)CCN(CC(=O)O)CC1; ξIle = CC[C@H](C)C(N)C(=O)O; AEEA = NCCOCCOCC(=O)O; AEA = NCCOCC(=O)O

Experiments:
integrin αvβ3 = integrin αvβ3 (Homo sapiens, UniProt P05106+P06756); test: Target affinity test by surface plasmon resonance (SPR), integrin αvβ3; format: binding; details: for affinity constant (KD) to integrin αvβ3, in words: SPR; for Kd: SPR (Biacore T200), CM5 chip, 25° C., KD=Kd/Ka
Sequence of integrin αvβ3 (P06756 31-992 limits assumed): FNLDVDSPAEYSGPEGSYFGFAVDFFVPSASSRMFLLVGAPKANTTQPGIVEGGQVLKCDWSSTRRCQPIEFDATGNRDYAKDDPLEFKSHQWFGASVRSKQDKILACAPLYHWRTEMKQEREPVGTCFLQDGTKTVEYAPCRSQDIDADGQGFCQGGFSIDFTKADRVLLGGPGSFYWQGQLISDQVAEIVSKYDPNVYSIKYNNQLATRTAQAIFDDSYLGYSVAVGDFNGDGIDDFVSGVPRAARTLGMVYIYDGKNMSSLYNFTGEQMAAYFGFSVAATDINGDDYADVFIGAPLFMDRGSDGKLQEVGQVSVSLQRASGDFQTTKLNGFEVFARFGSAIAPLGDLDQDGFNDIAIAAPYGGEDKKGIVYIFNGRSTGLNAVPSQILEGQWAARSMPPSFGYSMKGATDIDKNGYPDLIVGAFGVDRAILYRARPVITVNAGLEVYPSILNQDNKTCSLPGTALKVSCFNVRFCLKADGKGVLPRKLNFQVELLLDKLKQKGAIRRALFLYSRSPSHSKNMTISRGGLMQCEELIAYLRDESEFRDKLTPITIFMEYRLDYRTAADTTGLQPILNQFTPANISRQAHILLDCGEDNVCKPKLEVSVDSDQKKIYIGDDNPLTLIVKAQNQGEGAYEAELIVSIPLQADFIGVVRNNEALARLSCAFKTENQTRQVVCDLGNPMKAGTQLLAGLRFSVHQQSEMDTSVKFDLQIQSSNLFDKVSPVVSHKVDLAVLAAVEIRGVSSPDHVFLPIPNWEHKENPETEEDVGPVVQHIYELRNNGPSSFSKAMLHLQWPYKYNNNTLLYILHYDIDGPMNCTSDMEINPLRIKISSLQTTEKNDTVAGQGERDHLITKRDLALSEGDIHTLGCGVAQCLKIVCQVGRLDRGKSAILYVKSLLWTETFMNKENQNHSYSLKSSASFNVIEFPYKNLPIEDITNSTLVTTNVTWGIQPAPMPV
Sequence of integrin αvβ3 (P05106 27-718 limits assumed): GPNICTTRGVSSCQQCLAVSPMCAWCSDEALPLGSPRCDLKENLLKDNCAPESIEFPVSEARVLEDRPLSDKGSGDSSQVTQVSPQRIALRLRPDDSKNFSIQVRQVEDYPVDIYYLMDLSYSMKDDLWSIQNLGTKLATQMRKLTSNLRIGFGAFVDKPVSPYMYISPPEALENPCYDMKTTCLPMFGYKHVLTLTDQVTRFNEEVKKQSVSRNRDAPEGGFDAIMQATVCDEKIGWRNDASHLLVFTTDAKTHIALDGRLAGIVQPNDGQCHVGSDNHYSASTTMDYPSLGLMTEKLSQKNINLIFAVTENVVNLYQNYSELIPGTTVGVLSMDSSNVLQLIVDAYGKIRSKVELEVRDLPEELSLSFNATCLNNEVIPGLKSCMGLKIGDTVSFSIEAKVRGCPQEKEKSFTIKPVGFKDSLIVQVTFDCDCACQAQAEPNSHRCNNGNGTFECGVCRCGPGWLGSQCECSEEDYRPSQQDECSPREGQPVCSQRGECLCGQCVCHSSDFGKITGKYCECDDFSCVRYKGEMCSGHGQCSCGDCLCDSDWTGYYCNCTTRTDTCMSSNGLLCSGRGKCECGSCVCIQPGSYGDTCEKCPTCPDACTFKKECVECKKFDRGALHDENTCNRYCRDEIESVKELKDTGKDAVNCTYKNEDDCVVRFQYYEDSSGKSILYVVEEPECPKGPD
Experimental: (§1) Surface plasmon resonance (SPR) technique was used to test the affinity of the compound in the examples to the target protein integrin α5β1. Specifically, the following operations were performed.
(§2) The affinity constants (KD) of the compounds to the target proteins integrin α5β1, αvβ3, and αvβ5 were calculated according to the formula of KD=Kd/Ka (the lower the value of KD, the higher the affinity of the compounds of the examples to the target protein integrin α5β1).

integrin α5β1 = integrin α5β1 (Homo sapiens, UniProt P05556+P08648); test: Target affinity test by surface plasmon resonance (SPR), integrin α5β1; format: binding; details: for Kd: SPR (Biacore T200), CM5 chip, 25° C., KD=Kd/Ka; for affinity constant (KD) to integrin α5β1, in words: SPR
Sequence of integrin α5β1 (P08648 42-995 limits assumed): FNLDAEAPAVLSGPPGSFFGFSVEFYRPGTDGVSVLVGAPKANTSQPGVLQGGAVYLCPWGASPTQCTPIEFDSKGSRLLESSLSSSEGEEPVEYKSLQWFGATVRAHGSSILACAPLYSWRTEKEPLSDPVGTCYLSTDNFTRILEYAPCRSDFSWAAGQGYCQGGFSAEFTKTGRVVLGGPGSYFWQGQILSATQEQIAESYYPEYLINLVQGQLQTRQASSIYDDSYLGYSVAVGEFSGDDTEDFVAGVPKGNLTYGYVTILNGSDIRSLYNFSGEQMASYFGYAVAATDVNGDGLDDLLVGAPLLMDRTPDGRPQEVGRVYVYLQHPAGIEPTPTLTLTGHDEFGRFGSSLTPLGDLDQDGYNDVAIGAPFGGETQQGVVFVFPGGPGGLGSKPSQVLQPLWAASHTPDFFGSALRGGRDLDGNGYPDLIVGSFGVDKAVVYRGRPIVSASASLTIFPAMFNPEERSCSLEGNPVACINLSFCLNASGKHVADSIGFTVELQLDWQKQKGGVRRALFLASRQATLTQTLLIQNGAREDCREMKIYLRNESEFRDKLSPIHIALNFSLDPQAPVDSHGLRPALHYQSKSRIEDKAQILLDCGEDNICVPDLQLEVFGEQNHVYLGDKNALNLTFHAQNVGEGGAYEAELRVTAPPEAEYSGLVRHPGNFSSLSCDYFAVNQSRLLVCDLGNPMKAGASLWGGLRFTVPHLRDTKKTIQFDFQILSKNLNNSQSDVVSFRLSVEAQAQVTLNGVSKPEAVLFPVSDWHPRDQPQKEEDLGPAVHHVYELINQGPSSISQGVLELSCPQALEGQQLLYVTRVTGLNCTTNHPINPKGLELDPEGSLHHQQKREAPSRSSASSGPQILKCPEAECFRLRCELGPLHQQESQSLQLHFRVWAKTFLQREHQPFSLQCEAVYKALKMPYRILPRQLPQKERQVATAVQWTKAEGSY
Sequence of integrin α5β1 (P05556 21-728 limits assumed): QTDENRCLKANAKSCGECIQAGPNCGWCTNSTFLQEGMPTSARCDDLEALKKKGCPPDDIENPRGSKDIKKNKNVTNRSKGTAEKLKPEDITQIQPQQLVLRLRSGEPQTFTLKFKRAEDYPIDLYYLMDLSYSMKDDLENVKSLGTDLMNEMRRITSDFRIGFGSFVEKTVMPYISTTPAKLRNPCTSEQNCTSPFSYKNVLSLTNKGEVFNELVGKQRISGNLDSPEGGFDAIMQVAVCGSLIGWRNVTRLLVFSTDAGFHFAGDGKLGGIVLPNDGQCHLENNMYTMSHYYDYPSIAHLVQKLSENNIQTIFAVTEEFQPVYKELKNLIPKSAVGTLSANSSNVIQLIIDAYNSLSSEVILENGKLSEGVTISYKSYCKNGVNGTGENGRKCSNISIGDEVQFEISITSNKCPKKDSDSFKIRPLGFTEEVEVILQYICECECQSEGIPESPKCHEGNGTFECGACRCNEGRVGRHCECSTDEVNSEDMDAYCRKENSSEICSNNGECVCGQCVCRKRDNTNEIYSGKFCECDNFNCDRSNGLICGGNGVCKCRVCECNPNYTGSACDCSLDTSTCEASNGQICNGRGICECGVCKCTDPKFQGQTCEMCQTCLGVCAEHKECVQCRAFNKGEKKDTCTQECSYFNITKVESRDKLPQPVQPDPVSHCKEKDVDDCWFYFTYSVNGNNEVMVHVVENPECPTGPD
Experimental: as §1, §2

SMILES	affinity constant (KD) to integrin αvβ3, in words (integrin αvβ3)	Kd (integrin αvβ3) [nM]	Kd (integrin α5β1) [nM]	affinity constant (KD) to integrin α5β1, in words (integrin α5β1)
CC[C@H](C)[C@H](NC(=O)[C@@H](NC(=O)[C@H](CC(=O)O)NC(=O)[C@H](CC(N)=O)NC(=O)COCCNC(=O)CN1CCN(CC(=O)O)CCN(CC(=O)O)CCN(CC(=O)O)CC1)C(C)C)C(=O)N[C@@H](CC(N)=O)C(=O)O [TM13] ({DOTA-AEA}-NDVIN-OH)	nM level	0.646	1450	–
CC[C@H](C)C(NC(=O)[C@@H](NC(=O)[C@H](CC(=O)O)NC(=O)[C@H](CC(N)=O)NC(=O)COCCOCCNC(=O)CN1CCN(CC(=O)O)CCN(CC(=O)O)CCN(CC(=O)O)CC1)C(C)C)C(=O)N[C@@H](CC(N)=O)C(=O)O (stereo partly shown) [TM14] ({DOTA-AEEA}-NDV[ξIle]N-OH)	–	36.7	9.43	better than nM level
CC[C@H](C)C(NC(=O)[C@@H](NC(=O)[C@H](CC(=O)O)NC(=O)[C@H](CC(N)=O)NC(=O)[C@H](CC(=O)O)NC(=O)CNC(=O)[C@H](CCCNC(=N)N)NC(=O)COCCNC(=O)CN1CCN(CC(=O)O)CCN(CC(=O)O)CCN(CC(=O)O)CC1)C(C)C)C(=O)N[C@@H](CC(N)=O)C(=O)O (stereo partly shown) [TM15] ({DOTA-AEA}-RGDNDV[ξIle]N-OH)	nM level	1.69	0.992	better than nM level
